Reference: patent publication US20260297085A1, “1 H-PYRROLO[2,3-B]PYRIDIN-4-YL]-2-OXOPYRROLIDINE-3-CARBONITRILE DERIVATIVES AS TYROSINE KINASE 2 (TYK2) INHIBITORS FOR THE TREATMENT OF INFLAMMATORY DISEASES” (BIOGEN MA INC., priority 2023, published 2026)

Key:
[1] = target: T1, human TYK2 kinase domain (JH1) (Homo sapiens, UniProt P29597); assay: JH1 biochemical assay for TYK2 (ADP-Glo kinase assay, recombinant JH1 catalytic domain, JAK3-974 peptide, 10 μM ATP); settings: TYK2 JH1, ADP-Glo
T1 construct: recombinantly generated catalytic kinase (also known as JH1) domain of human JAK1, JAK2, JAK3 and TYK2
T1 sequence (P29597 897-1176 limits assumed): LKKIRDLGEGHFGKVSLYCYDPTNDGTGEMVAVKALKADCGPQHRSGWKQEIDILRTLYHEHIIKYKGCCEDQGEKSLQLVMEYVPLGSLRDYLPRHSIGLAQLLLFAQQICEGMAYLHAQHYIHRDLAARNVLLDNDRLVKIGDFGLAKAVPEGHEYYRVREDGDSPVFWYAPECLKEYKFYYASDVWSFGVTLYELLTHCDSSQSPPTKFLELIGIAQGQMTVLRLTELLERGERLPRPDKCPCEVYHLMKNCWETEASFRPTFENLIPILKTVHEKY
In short: (§1)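 Compounds were titrated in 11 points of 3-fold dilution starting at 10 μM or 1 μM. Enzyme (JAK1 4 nM, JAK2 0.2 nM, JAK3 0.3 nM, TYK2 2 nM) and 50 μM peptide reacted for 100 minutes, followed by ADP-to-luminescence detection; IC50 by 4-parameter fit.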

[2] = target: T2, human JAK1 kinase domain (JH1) (Homo sapiens, UniProt P23458); assay: JH1 biochemical assay for JAK1 (ADP-Glo kinase assay, recombinant JH1 catalytic domain, JAK3-342 peptide, 35 μM ATP); settings: JAK1 JH1, ADP-Glo
T2 construct: recombinantly generated catalytic kinase (also known as JH1) domain of human JAK1, JAK2, JAK3 and TYK2
T2 sequence (P23458 875-1153 limits assumed): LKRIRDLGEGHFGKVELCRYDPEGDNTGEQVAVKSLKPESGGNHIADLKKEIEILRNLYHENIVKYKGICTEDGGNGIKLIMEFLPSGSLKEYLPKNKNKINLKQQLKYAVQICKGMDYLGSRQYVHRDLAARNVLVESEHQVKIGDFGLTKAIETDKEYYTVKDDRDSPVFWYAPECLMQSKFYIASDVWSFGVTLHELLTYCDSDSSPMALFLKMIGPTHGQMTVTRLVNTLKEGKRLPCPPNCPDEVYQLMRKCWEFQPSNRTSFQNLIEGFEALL
In short: as §1

[3] = target: T3, human JAK2 kinase domain (JH1) (Homo sapiens, UniProt O60674); assay: JH1 biochemical assay for JAK2 (ADP-Glo kinase assay, recombinant JH1 catalytic domain, JAK3-974 peptide, 15 μM ATP); settings: JAK2 JH1, ADP-Glo
T3 construct: recombinantly generated catalytic kinase (also known as JH1) domain of human JAK1, JAK2, JAK3 and TYK2
T3 sequence (O60674 849-1124 limits assumed): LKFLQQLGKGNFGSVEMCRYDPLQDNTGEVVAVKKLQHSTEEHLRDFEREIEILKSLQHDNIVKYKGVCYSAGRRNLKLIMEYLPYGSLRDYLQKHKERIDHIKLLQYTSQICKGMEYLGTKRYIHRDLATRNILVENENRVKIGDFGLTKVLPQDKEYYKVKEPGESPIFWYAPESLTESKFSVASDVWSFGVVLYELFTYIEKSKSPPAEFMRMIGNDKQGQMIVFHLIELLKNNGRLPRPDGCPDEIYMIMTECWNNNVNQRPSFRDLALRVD
In short: as §1

[4] = target: T4, human JAK3 kinase domain (JH1) (Homo sapiens, UniProt P52333); assay: JH1 biochemical assay for JAK3 (ADP-Glo kinase assay, recombinant JH1 catalytic domain, JAK3-974 peptide, 4 μM ATP); settings: JAK3 JH1, ADP-Glo
T4 construct: recombinantly generated catalytic kinase (also known as JH1) domain of human JAK1, JAK2, JAK3 and TYK2
T4 sequence (P52333 822-1111 limits assumed): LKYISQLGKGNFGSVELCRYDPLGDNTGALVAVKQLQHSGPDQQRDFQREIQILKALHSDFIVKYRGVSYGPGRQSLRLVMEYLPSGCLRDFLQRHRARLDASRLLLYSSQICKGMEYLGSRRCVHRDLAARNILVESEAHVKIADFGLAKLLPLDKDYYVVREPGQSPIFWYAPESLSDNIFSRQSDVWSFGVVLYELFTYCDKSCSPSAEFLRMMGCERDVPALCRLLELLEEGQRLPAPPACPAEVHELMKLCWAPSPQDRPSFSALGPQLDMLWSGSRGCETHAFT
In short: as §1

[5] = target: Tyk2 kinase activity on STAT4 in NK92 cells (Homo sapiens, UniProt P29597); assay: pSTAT4 cell assay (MSD; NK92 cells, 30 ng/mL IL2 stimulation); format: cell-based; settings: 30 ng/mL IL2, 15 minutes
Sequence of Tyk2 kinase activity on STAT4 in NK92 cells (P29597 whole entry): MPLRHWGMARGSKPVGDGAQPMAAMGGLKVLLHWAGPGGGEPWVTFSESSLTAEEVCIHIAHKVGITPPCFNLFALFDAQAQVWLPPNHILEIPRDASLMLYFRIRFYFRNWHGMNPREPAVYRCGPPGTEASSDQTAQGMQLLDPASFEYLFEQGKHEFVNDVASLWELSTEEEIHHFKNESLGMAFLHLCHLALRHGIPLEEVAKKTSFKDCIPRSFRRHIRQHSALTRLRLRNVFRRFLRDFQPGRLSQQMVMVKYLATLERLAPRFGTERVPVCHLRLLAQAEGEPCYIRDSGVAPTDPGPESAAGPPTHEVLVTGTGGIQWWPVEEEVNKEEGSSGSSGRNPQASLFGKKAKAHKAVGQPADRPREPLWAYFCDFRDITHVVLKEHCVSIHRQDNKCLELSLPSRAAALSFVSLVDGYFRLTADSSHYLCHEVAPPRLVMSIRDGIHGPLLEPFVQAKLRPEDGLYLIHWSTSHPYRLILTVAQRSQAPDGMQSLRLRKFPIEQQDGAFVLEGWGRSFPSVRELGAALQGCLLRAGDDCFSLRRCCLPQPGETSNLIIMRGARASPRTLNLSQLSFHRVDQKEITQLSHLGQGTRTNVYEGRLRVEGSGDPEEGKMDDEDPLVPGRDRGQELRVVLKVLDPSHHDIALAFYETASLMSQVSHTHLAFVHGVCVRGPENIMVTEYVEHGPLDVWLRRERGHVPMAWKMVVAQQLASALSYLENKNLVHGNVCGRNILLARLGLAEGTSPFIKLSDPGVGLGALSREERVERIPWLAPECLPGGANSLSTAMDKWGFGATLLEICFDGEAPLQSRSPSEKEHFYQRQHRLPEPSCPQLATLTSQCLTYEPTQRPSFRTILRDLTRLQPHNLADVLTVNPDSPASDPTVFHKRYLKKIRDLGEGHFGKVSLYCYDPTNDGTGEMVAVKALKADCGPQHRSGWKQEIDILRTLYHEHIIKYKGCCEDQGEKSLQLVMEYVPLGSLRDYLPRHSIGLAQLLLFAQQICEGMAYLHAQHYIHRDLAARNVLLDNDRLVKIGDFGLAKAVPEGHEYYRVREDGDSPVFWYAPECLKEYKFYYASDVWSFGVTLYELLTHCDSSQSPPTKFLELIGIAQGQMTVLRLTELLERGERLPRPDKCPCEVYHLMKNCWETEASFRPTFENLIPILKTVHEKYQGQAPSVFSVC
In short: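 IC50 values derive from 4-parameter logistic fits of normalized percent activity against log compound concentration. Phospho-STAT was measured by MSD with anti-STAT4 antibodies after 15 min of 30 ng/mL IL2 in serum-starved NK92 cells pretreated 1 hr with compound.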

[6] = target: JAK2 kinase activity on STAT5 in TF1 cells (Homo sapiens, UniProt O60674); assay: pSTAT5 cell assay (MSD; TF1 cells, 30 ng/mL IL-3 stimulation); format: cell-based; settings: 30 ng/mL IL-3, 15 minutes
Sequence of JAK2 kinase activity on STAT5 in TF1 cells (O60674 whole entry): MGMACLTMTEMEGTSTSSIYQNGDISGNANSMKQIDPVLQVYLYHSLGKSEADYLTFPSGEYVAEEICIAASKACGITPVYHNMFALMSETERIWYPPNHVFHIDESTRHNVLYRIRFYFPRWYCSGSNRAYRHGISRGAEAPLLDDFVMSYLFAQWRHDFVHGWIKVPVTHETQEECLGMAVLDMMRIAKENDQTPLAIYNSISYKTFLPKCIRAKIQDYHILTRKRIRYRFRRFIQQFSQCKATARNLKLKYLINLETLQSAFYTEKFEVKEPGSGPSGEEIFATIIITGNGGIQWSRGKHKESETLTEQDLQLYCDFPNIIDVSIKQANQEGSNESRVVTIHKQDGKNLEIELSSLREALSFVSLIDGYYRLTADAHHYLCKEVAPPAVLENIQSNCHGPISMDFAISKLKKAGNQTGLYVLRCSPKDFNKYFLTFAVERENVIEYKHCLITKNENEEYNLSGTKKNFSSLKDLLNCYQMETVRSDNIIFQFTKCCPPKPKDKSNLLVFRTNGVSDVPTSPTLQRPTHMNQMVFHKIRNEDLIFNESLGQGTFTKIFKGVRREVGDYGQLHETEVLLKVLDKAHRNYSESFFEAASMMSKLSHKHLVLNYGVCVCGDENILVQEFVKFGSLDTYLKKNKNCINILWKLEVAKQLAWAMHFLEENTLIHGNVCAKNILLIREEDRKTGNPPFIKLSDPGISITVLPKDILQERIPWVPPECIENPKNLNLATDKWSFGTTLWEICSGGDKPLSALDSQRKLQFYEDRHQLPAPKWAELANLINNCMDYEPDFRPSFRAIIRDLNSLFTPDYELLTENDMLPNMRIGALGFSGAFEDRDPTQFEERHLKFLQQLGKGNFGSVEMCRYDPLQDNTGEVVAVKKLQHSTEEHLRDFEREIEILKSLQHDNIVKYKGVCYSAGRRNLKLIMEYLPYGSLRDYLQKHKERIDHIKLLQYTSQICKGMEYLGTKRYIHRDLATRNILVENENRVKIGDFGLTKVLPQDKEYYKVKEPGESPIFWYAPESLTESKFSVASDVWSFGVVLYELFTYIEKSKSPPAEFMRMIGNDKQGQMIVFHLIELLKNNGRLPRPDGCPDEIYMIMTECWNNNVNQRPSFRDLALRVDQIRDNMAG
In short: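 Serum-starved TF1 cells with native JAK2/STAT5 were pretreated 1 h with compound (10-point four-fold dilutions from 10 μM), then stimulated 15 min with 30 ng/mL IL-3. pSTAT5 in lysates quantified by MSD immunoassay; normalized percent activity fitted to a 4-parameter logistic curve for IC50.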

[7] = target: JAK1 kinase activity on STAT3 in TF1 cells (Homo sapiens, UniProt P23458); assay: pSTAT3 cell assay (MSD; TF1 cells, 30 ng/mL IL-6 stimulation); format: cell-based; settings: 30 ng/mL IL-6, 15 minutes
Sequence of JAK1 kinase activity on STAT3 in TF1 cells (P23458 whole entry): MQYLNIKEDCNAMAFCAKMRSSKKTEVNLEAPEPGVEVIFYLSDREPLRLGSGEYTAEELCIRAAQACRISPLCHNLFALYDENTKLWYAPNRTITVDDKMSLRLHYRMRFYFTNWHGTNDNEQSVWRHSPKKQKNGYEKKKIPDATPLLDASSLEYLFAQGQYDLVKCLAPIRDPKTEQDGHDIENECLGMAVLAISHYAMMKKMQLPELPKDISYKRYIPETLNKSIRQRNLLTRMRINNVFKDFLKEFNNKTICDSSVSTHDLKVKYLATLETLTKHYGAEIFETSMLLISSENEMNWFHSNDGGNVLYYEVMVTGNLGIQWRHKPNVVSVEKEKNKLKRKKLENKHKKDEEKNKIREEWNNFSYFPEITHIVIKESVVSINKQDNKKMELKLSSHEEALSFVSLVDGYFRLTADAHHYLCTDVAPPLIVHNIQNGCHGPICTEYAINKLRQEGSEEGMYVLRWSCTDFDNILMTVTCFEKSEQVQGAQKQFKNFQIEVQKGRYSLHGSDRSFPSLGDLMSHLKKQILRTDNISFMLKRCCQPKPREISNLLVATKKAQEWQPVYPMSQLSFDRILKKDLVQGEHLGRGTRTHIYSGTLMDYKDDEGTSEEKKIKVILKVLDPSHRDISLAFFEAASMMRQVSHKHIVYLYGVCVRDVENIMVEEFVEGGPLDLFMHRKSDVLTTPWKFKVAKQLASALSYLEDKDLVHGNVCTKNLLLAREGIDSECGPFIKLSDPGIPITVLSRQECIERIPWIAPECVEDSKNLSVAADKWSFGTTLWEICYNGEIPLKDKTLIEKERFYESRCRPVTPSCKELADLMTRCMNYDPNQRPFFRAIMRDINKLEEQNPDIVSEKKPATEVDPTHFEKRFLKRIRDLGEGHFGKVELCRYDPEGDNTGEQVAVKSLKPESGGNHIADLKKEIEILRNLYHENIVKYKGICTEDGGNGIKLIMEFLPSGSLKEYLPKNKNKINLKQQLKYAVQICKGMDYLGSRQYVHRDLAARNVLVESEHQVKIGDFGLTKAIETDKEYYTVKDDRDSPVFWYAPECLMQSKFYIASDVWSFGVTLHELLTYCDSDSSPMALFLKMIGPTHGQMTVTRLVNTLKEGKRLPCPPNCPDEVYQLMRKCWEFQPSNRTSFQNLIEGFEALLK
In short: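 Serum-starved TF1 cells with endogenous JAK1/STAT3 were pretreated 1 h with compound in a 10-point four-fold dilution series from 10 μM, then stimulated with 30 ng/mL IL-6 for 15 min. pSTAT3 in lysates was quantified by MSD immunoassay, and IC50 came from 4-parameter logistic fits.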

Compound	IC50 [1]	IC50 [2]	IC50 [3]	IC50 [4]	IC50 [5]	IC50 [6]	IC50 [7]
C[C@@H]1CN(c2ccnn3cc(-c4cnn(C56CC(C#N)(C5)C6)c4)cc23)C(=O)[C@]1(C#N)C1CC1 [Example 320, (3R,4S)-1-(6-(1-(3-cyanobicyclo[1.1.1]pentan-1-yl)-1H-pyrazol-4-yl)pyrrolo[1,2-b]pyridazin-4-yl)-3-cyclopropyl-4-methyl-2-oxopyrrolidine-3-carbonitrile]	< 5 nM	100 to 1000 nM	< 100 nM	< 100 nM	50 to 100 nM	1000 to 5000 nM	1000 to 5000 nM
C[C@@H]1CN(c2ccnn3cc(-c4cn(C5COC5)nc4F)cc23)C(=O)[C@]1(C#N)C1CC1 [Example 321, (3R,4S)-3-cyclopropyl-1-(6-(3-fluoro-1-(oxetan-3-yl)-1H-pyrazol-4-yl)pyrrolo[1,2-b]pyridazin-4-yl)-4-methyl-2-oxopyrrolidine-3-carbonitrile]	< 5 nM	100 to 1000 nM	< 100 nM	100 to 1000 nM	50 to 100 nM	1000 to 5000 nM	1000 to 5000 nM
C[C@@H]1CN(c2ccnn3cc(-c4cnn(C5(CC#N)CC5)c4)cc23)C(=O)[C@]1(C#N)C1CC1 [Example 323]	< 5 nM	< 100 nM	< 100 nM	< 100 nM	50 to 100 nM	1000 to 5000 nM	1000 to 5000 nM
C[C@@H]1CN(c2ccnn3cc(-c4cnn(CC5(C#N)CC5)c4)cc23)C(=O)[C@]1(C#N)C1CC1 [Example 324, (3R,4S)-1-(6-(1-((1-cyanocyclopropyl)methyl)-1H-pyrazol-4-yl)pyrrolo[1,2-b]pyridazin-4-yl)-3-cyclopropyl-4-methyl-2-oxopyrrolidine-3-carbonitrile]	< 5 nM	< 100 nM	< 100 nM	< 100 nM	50 to 100 nM	100 to 1000 nM	100 to 1000 nM
C[C@@H]1CN(c2ccnn3cc(-c4cnn([C@H]5C[C@@](F)(C#N)C5)c4)cc23)C(=O)[C@]1(C#N)C1CC1 [Example 326, (3R,4S)-1-(6-(1-((1r,3R)-3-cyano-3-fluorocyclobutyl)-1H-pyrazol-4-yl)pyrrolo[1,2-b]pyridazin-4-yl)-3-cyclopropyl-4-methyl-2-oxopyrrolidine-3-carbonitrile]	< 5 nM	< 100 nM	< 100 nM	< 100 nM	> 100 nM	1000 to 5000 nM	1000 to 5000 nM
C[C@@H]1CN(c2ccnn3cc(-c4cnn([C@H]5C[C@@H](C#N)C5)c4)cc23)C(=O)[C@]1(C#N)C1CC1 [Example 329, (3R,4S)-1-(6-(1-((1s,3S)-3-cyanocyclobutyl)-1H-pyrazol-4-yl)pyrrolo[1,2-b]pyridazin-4-yl)-3-cyclopropyl-4-methyl-2-oxopyrrolidine-3-carbonitrile]	< 5 nM	< 100 nM	< 100 nM	< 100 nM	20 to 50 nM	100 to 1000 nM	100 to 1000 nM
C[C@@H]1CN(c2ccnn3cc(-c4cnn([C@H]5C[C@H](C#N)C5)c4)cc23)C(=O)[C@]1(C#N)C1CC1 [Example 330, (3R,4S)-1-(6-(1-((1r,3R)-3-cyanocyclobutyl)-1H-pyrazol-4-yl)pyrrolo[1,2-b]pyridazin-4-yl)-3-cyclopropyl-4-methyl-2-oxopyrrolidine-3-carbonitrile]	< 5 nM	< 100 nM	< 100 nM	< 100 nM	20 to 50 nM	1000 to 5000 nM	1000 to 5000 nM
C[C@@H]1CN(c2ccnn3cc(-c4cnn(C5CCN(C)CC5)c4)cc23)C(=O)[C@]1(C#N)C1CC1 [Example 331, (3R,4S)-3-cyclopropyl-4-methyl-1-(6-(1-(1-methylpiperidin-4-yl)-1H-pyrazol-4-yl)pyrrolo[1,2-b]pyridazin-4-yl)-2-oxopyrrolidine-3-carbonitrile]	< 5 nM	100 to 1000 nM	< 100 nM	< 100 nM	50 to 100 nM	100 to 1000 nM	1000 to 5000 nM
C[C@@H]1CN(c2ccnn3cc(-c4cnn(C5CCN(C)C5)c4)cc23)C(=O)[C@]1(C#N)C1CC1 (stereo partly drawn) [Example 332, (3R,4S)-3-cyclopropyl-4-methyl-1-(6-(1-(1-methylpyrrolidin-3-yl)-1H-pyrazol-4-yl)pyrrolo[1,2-b]pyridazin-4-yl)-2-oxopyrrolidine-3-carbonitrile]	< 5 nM	100 to 1000 nM	100 to 1000 nM	< 100 nM	50 to 100 nM	1000 to 5000 nM	1000 to 5000 nM

The remaining lines, values ahead:

IC50 [1]	IC50 [2]	IC50 [3]	IC50 [4]	IC50 [5]	IC50 [6]	IC50 [7]	Compound
5 to 20 nM	100 to 1000 nM	100 to 1000 nM	100 to 1000 nM	> 100 nM	> 10000 nM	> 10000 nM	Cc1cnn(-c2cc3c(N4C[C@@H](C)[C@@](C#N)(C5CC5)C4=O)ccnn3c2)c1 [Example 333, (3R,4S)-3-cyclopropyl-4-methyl-1-(6-(4-methyl-1H-pyrazol-1-yl)pyrrolo[1,2-b]pyridazin-4-yl)-2-oxopyrrolidine-3-carbonitrile]
20 to 50 nM	1000 to 5000 nM	1000 to 5000 nM	100 to 1000 nM	> 100 nM	> 10000 nM	> 10000 nM	Cc1ccn(-c2cc3c(N4C[C@@H](C)[C@@](C#N)(C5CC5)C4=O)ccnn3c2)n1 [Example 334, (3R,4S)-3-cyclopropyl-4-methyl-1-(6-(3-methyl-1H-pyrazol-1-yl)pyrrolo[1,2-b]pyridazin-4-yl)-2-oxopyrrolidine-3-carbonitrile]
20 to 50 nM	100 to 1000 nM	1000 to 5000 nM	100 to 1000 nM	> 100 nM	> 10000 nM	> 10000 nM	C[C@@H]1CN(c2ccnn3cc(-n4cccn4)cc23)C(=O)[C@]1(C#N)C1CC1 [Example 335, (3R,4S)-1-(6-(1H-pyrazol-1-yl)pyrrolo[1,2-b]pyridazin-4-yl)-3-cyclopropyl-4-methyl-2-oxopyrrolidine-3-carbonitrile]
20 to 50 nM	100 to 1000 nM	1000 to 5000 nM	100 to 1000 nM	> 100 nM	> 10000 nM	> 10000 nM	C[C@@H]1CN(c2ccnn3cc(-n4ccnc4)cc23)C(=O)[C@]1(C#N)C1CC1 [Example 336, (3R,4S)-1-(6-(1H-imidazol-1-yl)pyrrolo[1,2-b]pyridazin-4-yl)-3-cyclopropyl-4-methyl-2-oxopyrrolidine-3-carbonitrile]
5 to 20 nM	100 to 1000 nM	100 to 1000 nM	100 to 1000 nM	> 100 nM	5000 to 10000 nM	1000 to 5000 nM	Cc1cn(-c2cc3c(N4C[C@@H](C)[C@@](C#N)(C5CC5)C4=O)ccnn3c2)cn1 [Example 341, (3R,4S)-3-cyclopropyl-4-methyl-1-(6-(4-methyl-1H-imidazol-1-yl)pyrrolo[1,2-b]pyridazin-4-yl)-2-oxopyrrolidine-3-carbonitrile]
< 5 nM	100 to 1000 nM	100 to 1000 nM	< 100 nM	> 100 nM	1000 to 5000 nM	100 to 1000 nM	C[C@@H]1CN(c2ccnc3cc(-c4cnn(C56CC(C5)C6)c4)oc23)C(=O)[C@]1(C#N)C1CC1 [Example 344, (3R,4S)-1-(2-(1-(bicyclo[1.1.1]pentan-1-yl)-1H-pyrazol-4-yl)furo[3,2-b]pyridin-7-yl)-3-cyclopropyl-4-methyl-2-oxopyrrolidine-3-carbonitrile]
< 5 nM	< 100 nM	100 to 1000 nM	< 100 nM	> 100 nM	1000 to 5000 nM	1000 to 5000 nM	CC(C)n1cc(-c2cc3nccc(N4C[C@@H](C)[C@@](C#N)(C5CC5)C4=O)c3o2)cn1 [Example 346, (3R,4S)-3-cyclopropyl-1-(2-(1-isopropyl-1H-pyrazol-4-yl)furo[3,2-b]pyridin-7-yl)-4-methyl-2-oxopyrrolidine-3-carbonitrile]
